Molecular target: T1, Na+-dependent bile acid transportation system (intestinal bile acid transportation system in the terminal small intestine) (Oryctolagus cuniculus, UniProt Q28727)
T1 construct: Brush border membrane vesicles from the intestinal cells of the small intestine were prepared by the so-called Mg^2+ precipitation method; from tissue; host or cells: brush border membrane vesicles from the terminal 7/10 of the small intestine (ileum) of male New Zealand rabbits
T1 sequence (Q28727 1-347): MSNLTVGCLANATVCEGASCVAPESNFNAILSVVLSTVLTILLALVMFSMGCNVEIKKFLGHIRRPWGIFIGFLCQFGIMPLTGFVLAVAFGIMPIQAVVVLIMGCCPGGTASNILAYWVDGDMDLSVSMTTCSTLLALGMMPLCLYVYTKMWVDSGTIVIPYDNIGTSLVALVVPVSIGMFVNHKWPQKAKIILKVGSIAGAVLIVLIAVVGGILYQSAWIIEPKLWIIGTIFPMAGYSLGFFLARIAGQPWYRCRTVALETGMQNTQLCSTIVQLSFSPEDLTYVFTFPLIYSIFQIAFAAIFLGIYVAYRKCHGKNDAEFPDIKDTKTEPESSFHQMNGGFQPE
Assay: Inhibition of Na+-dependent [3H]-taurocholate uptake in brush border membrane vesicles of the ileum of rabbits
Assay type: biochemical
Details: rabbit ileum brush border membrane vesicles, 50 μM taurocholate, usually 1 minute incubation
Procedure: Biological testing of the compounds according to the invention was carried out by determining the inhibition of [^3 H]-taurocholate uptake in brush border membrane vesicles of the ileum of rabbits. The inhibition test was carried out as described below.
Test 1. Preparation of Brush Border Membrane Vesicles from the Ileum of Rabbits
Brush border membrane vesicles from the intestinal cells of the small intestine were prepared by the so-called Mg^2+ precipitation method as follows. Male New Zealand rabbits (2 to 2.5 kg body weight) were sacrificed by intravenous injection of 0.5 ml of T61®, an aqueous solution of 2.5 mg of tetracaine HCl, 100 mg of embutramide and 25 mg of mebezonium iodide. The small intestine was removed and flushed with ice-cold physiological saline solution. The terminal 7/10 of the small intestine (measured in the oral-rectal direction, i.e. the terminal ileum, which contains the active Na^+ -dependent bile acid transportation system) was used for preparation of the brush border membrane vesicles. The intestines were frozen in plastic bags under nitrogen at -80° C.
For preparation of the membrane vesicles, the frozen intestines were thawed at 30° C. in a water-bath. The mucosa were peeled off and suspended in 60 ml of ice-cold 12 mM TRIS-HCl buffer (pH 7.1)/300 mM mannitol, 5 mM EGTA/10 mg/l of phenylmethyl-sulfonyl fluoride/1 mg/l of trypsin inhibitor from soybeans (32 U/mg)/0.5 mg/l of trypsin inhibitor from the bovine lung (193 U/mg)/5 mg/l of bacitracin. After dilution to 300 ml with ice-cold distilled water, the mixture was homogenized with an Ultraturrax (18-rod, IKA Werk Staufen, Germany) for 3 minutes at 75% of the maximum power, while cooling with ice. After addition of 3 ml of 1 M MgCl2 solution (final concentration 10 mM), the mixture was left to stand for exactly 1 minute at 0° C. The cell membranes aggregated by addition of Mg^2+ and precipitated, with the exception of the brush border membranes. After centrifugation for 15 minutes at 3000×g (5000 rpm, SS-34 rotor), the precipitate was discarded and the supernatant, which contained the brush border membranes, was centrifuged at 48000×g (20000 rpm, SS-34 rotor) for 30 minutes. The supernatant was discarded and the precipitate was rehomogenized in 60 ml of 12 mM TRIS/HCI buffer (pH 7.1)/60 mM mannitol, 5 mM EGTA with a Potter Elvejhem homogenizer (Braun, Melsungen, 900 rpm, 10-stroke). After addition of 0.1 ml of 1 M MgCl2 solution and an incubation time of 15 minutes at 0° C., the mixture was centrifuged again at 3000×g for 15 minutes. The supernatant was then centrifuged again at 48000×g (20000 rpm, SS-34 rotor) for 30 minutes. The precipitate was taken up in 30 ml of 10 mM TRIS/HEPES buffer (pH 7.4)/300 mM mannitol and resuspended by 20 strokes in a Potter Elvejhem homogenizer at a 1000 rpm. After centrifugation at 48000×g (20000 rpm, SS-34 rotor) for 30 minutes, the precipitate was taken up in 0.5 to 2 ml of TRIS/HEPES buffer (pH 7.4)/280 mM mannitol (final concentration 20 mg/ml) and resuspended with the aid of a tuberculin syringe with a 27-gauge needle. The vesicles were either used for the transportation investigations directly after the preparation, or stored in 4 mg portions in liquid nitrogen at -196° C.
Test 2. Inhibition of the Na^+ -dependent [^3 H]Taurocholate Uptake in Brush Border Member Vesicles of the Ileum
The uptake of substrates into the brush border membrane vesicles described above was determined by means of the so-called membrane filtration technique. 10 μl of the vesicle suspension (100 μg of protein) were pipetted as drops onto the wall of a polystyrene incubation tube (11×70 mm) which contained the incubation medium with the corresponding ligands (90 μl). […]

In the case of `Cn1ccnc1C(O)C(c1ccccn1)C(Nc1ccccn1)c1ccccc1` (stereo not shown) [Example 42], the “Biological Test: quotient of the IC50Na values of the reference substance taurochenodeoxycholate (TCDC) and of the test substance” value (“Biological Test: quotient” for short) is reported as 0.87.

With `OC(c1cnc2ccccc2c1)C(c1ccccn1)C(Nc1ccccn1)c1ccccc1` (stereo not shown) [Example 19] the “Biological Test: quotient” value was 0.42.

With `Cc1noc(C)c1C(O)C(c1ccccn1)C(Nc1ccccn1)c1ccccc1N` (stereo not shown) [Example 44] the “Biological Test: quotient” value was 0.74.

With `Cc1nc(C(O)C(c2ccccn2)C(Nc2ccccn2)c2ccccc2N)c(C)o1` (stereo not shown) [Example 48] the “Biological Test: quotient” value was 0.80.

`OC(c1cccs1)C(c1ccccn1)C(Nc1ccccn1)c1ccccc1` (stereo not shown) [Example 24] was tested, and the “Biological Test: quotient” value was 0.22.

In the case of `Cc1nc(-c2ccncc2)sc1C(O)C(c1ccccn1)C(Nc1ccccn1)c1ccccc1` (stereo not shown) [Example 51], the “Biological Test: quotient” value is reported as 0.52.

For `Cc1nc(-c2ccncc2)sc1C(O)C(c1ccccn1)C(Nc1ccccn1)c1ccccc1` (stereo not shown) [Example 52], the “Biological Test: quotient” value was 0.40.

For `OC(c1cccs1)C(c1ccccn1)C(Nc1ccccn1)c1ccccc1` (stereo not shown) [Example 21], the “Biological Test: quotient” value was 1.16.

In the case of `OC(c1cnc2ccccc2c1)C(c1ccccn1)C(Nc1ccccn1)c1ccccc1` (stereo not shown) [Example 20], the “Biological Test: quotient” value is reported as 0.23.

In the case of `OC(c1cccs1)C(c1ccccn1)C(Nc1ccccn1)c1ccccc1` (stereo not shown) [Example 23], the “Biological Test: quotient” value is reported as 0.23.

In the case of `Cc1nc(C)c(C(O)C(c2ccccn2)C(Nc2ccccn2)c2ccccc2)s1` (stereo not shown) [Example 14], the “Biological Test: quotient” value is reported as 0.66.

With `OC(c1ccccc1)C(c1ccc2ccccc2n1)C(Nc1ccccn1)c1ccccc1` (stereo not shown) [Example 2] the “Biological Test: quotient” value was 0.83.

In the case of `COc1ccsc1C(O)C(c1ccccn1)C(Nc1ccccn1)c1ccccc1` (stereo not shown) [Example 37], the “Biological Test: quotient” value is reported as 9.53.

In the case of `Cc1nc(C)c(C(O)C(c2ccccn2)C(Nc2ccccn2)c2ccccc2N)s1` (stereo not shown) [Example 39], the “Biological Test: quotient” value is reported as 0.65.

For `OC(c1ccc(Cl)s1)C(c1ccccn1)C(Nc1ccccn1)c1ccccc1` (stereo not shown) [Example 26], the “Biological Test: quotient” value was 0.26.

With `Nc1ccccc1C(Nc1ccccn1)C(c1ccccn1)C(O)c1ccon1` (stereo not shown) [Example 55] the “Biological Test: quotient” value was 0.31.

For `OC(c1cnccn1)C(c1ccccn1)C(Nc1ccccn1)c1ccccc1` (stereo not shown) [Example 11], the “Biological Test: quotient” value was 0.24.

In the case of `Cc1noc(C)c1C(O)C(c1ccccn1)C(Nc1ccccn1)c1ccccc1[N+](=O)[O-]` (stereo not shown) [Example 43], the “Biological Test: quotient” value is reported as 0.23.

For `OC(c1cnc2ccccc2c1)C(c1ccccn1)C(Nc1ccccn1)c1ccccc1` (stereo not shown) [Example 18], the “Biological Test: quotient” value was 0.37.

With `Cc1ccc(C(O)C(c2ccccn2)C(Nc2ccccn2)c2ccccc2)s1` (stereo not shown) [Example 27] the “Biological Test: quotient” value was 1.02.

For `Cc1noc(C)c1C(O)C(c1ccccn1)C(Nc1ccccn1)c1ccccc1` (stereo not shown) [Example 31], the “Biological Test: quotient” value was 0.37.

In the case of `Cc1cc(C(O)C(c2ccccn2)C(Nc2ccccn2)c2ccccc2N)no1` (stereo not shown) [Example 49], the “Biological Test: quotient” value is reported as 0.77.

With `OC(c1cnccn1)C(c1ccccn1)C(Nc1ccccn1)c1ccccc1` (stereo not shown) [Example 12] the “Biological Test: quotient” value was 0.24.

For `OC(c1cccs1)C(c1ccccn1)C(Nc1ccccn1)c1ccccc1` (stereo not shown) [Example 22], the “Biological Test: quotient” value was 0.19.

In the case of `Cc1nc(C(O)C(c2ccccn2)C(Nc2ccccn2)c2ccccc2)sc1C` (stereo not shown) [Example 33], the “Biological Test: quotient” value is reported as 0.24.

In the case of `Cc1nc(C(O)C(c2ccccn2)C(Nc2ccccn2)c2ccccc2)c(C)o1` (stereo not shown) [Example 25], the “Biological Test: quotient” value is reported as 0.46.

With `OC(c1cc(-c2ccccc2)on1)C(c1ccccn1)C(Nc1ccccn1)c1ccccc1` (stereo not shown) [Example 41] the “Biological Test: quotient” value was 0.60.

In the case of `Cc1nc(-c2ccncc2)sc1C(O)C(c1ccccn1)C(Nc1ccccn1)c1ccccc1` (stereo not shown) [Example 50], the “Biological Test: quotient” value is reported as 0.79.

For `Cn1ncnc1C(O)C(c1ccccn1)C(Nc1ccccn1)c1ccccc1` (stereo not shown) [Example 47], the “Biological Test: quotient” value was 0.35.

`OC(c1ccccc1)C(c1cnc2ccccc2n1)C(Nc1ccccn1)c1ccccc1` (stereo not shown) [Example 6] was tested, and the “Biological Test: quotient” value was 0.57.

With `OC(c1ccccc1)C(c1cnc2ccccc2n1)C(Nc1ccccn1)c1ccccc1` (stereo not shown) [Example 7] the “Biological Test: quotient” value was 0.22.

`OC(c1ccccc1)C(c1cnc2ccccc2c1)C(Nc1ccccn1)c1ccccc1` (stereo not shown) [Example 9] was tested, and the “Biological Test: quotient” value was 0.35.

`OC(c1nccs1)C(c1ccccc1)C(Nc1ccccn1)c1ccccc1` (stereo not shown) [Example 4] was tested, and the “Biological Test: quotient” value was 0.1.

For `OC(c1cc2ccccc2[nH]1)C(c1ccccn1)C(Nc1ccccn1)c1ccccc1` (stereo not shown) [Example 46], the “Biological Test: quotient” value was 0.22.

Reference: patent publication US6303639A, “Propanolamine derivatives substituted by heterocyclic radicals, processes for their preparation, pharmaceuticals comprising these compounds and their use” (Aventis Pharma Deutschland GmbH, priority 1998, dated 2001)
